# Test results as given in ChEMBL document CHEMBL4052713, “Bioactivity-guided isolation of chemical constituents against H2O2-induced neurotoxicity on PC12 from Cimicifuga dahurica (Turcz.) Maxim” (Bioorg Med Chem Lett, 2017).
# Calls of active or inactive are those of the source. The calls are words filed in the database; no cut-off is given here.
# System: PC-12
# Assay: Neuroprotective activity in rat PC12 cells assessed as reduction in H2O2-induced cytotoxicity at 1 to 10 uM pre-incubated for 24 hrs followed by H2O2 exposure for 24 hrs by MTT assay
# Assay type: functional, cell-based
row,Structure (SMILES),Activity
1,CCOC(=O)[C@](O)(Cc1ccc(O)cc1)[C@@H](O)C(=O)O,Active
2,CCOC(=O)[C@@H](OC(=O)/C=C/c1ccc(O[C@@H]2O[C@H](CO)[C@@H](O)[C@@H](O)[C@H]2O)c(OC)c1)[C@@](O)(Cc1ccc(O)cc1)C(=O)O,Active
3,CCOC(=O)[C@H](O)[C@@](O)(Cc1ccc(O)cc1)C(=O)O,Active
